Assay results reported in US20230271925A1, “NOVEL TNF ACTIVITY INHIBITOR COMPOUND, AND PHARMACEUTICALLY ACCEPTABLE SALT THEREOF” (ILAB, priority 2020, published 2023).
Marks after values point to notes of the source that are not given here.

How the values were obtained:
[1] = system: TNF-induced death of C57BL/6 mice; test: TNF-induced mouse lethality assay; assay type: in vivo; settings: for Survival (%): C57BL/6 male mice, 20 or 40 mg/kg p.o. 30 min before hTNF 8 μg/kg + D-galactosamine 700 mg/kg i.p., 24 hours; for survival rate of mice compared to the control group: C57BL/6 mice, pre-treated p.o., TNF + D-galactosamine
Procedure: In this experiment, the TNF-induced mouse death inhibition activity by the compound of the present invention was investigated. To this end, mice were pretreated with the compound of the present invention, and the survival rate of the mice was measured against TNF-induced death.
In particular, after C57BL/6 mice were fasted for 24 hours, 100 μL of the compounds of Examples 2, 32, 39, 40, 44, 47, and 48 in a buffer composition of 10% DMSO in 90% PBS was orally administered at a concentration of 20 or 40 mg/kg. After 30 minutes, a mixed solution of human recombinant TNF 8 μg/kg and D-galactosamine 700 mg/kg in PBS buffer was intraperitoneally administered at 100 μL per mouse, the survival rate of mice was measured every 3 hours from the time of intraperitoneal administration and the experiment was terminated 24 hours later. The mice were divided into 5 groups, the experiment was repeated 5 times, and the Example compounds used for each experiment are as shown in FIG. 7(a, b).

[2] = target: TNF-TNFR2 (Homo sapiens, UniProt P01375); test: TNF-TNFR2 binding inhibition, FRET assay; settings: for IC50: FRET (HTRF ratio), 0.25 nM TNF, 1 nM His-labeled TNFR2
Procedure: (§1) In this experiment, the inhibitory activity of the compound of the present invention was evaluated using a fluorescence resonance energy transfer (FRET) assay to measure the binding of TNF-TNFR1 or TNF-TNFR2.
(§2) In particular, biotin-labeled 0.25 nM TNF, XL-665-labeled streptavidin, 0.25 nM His-labeled TNFR1, 1 nM His-labeled TNFR2, and Europium-Gold-labeled anti-his Ab were used. First, each 2 μL (10% DMSO) of the compounds of Examples 48 and 51 was added in 384 wells. After 4 μL of 0.25 nM TNF was added, 4 μL of each of 0.25 nM His-labeled TNFR1 or 1 nM His-labeled TNFR2 was added thereto and incubated at room temperature for 1 hour. After 1 hour incubation, 5 μL of XL-665-labeled streptavidin and 5 μL of Europium-Gold-labeled anti-his Ab were added and further incubated at room temperature. […] was measured at 622 nm and 665 nm. The reagent used at this time was prepared by dissolving in PPI-europium detection buffer.
(§3) First, binding inhibitory activity of the compounds of the present invention to TNF and TNFR1 or TNFR2 was evaluated at a single concentration ([…]) of the compounds.
(§4) Then, IC50 values were obtained with the various concentrations of the compounds of Examples 48 and 51. At this time, the value was confirmed through the HTRF ratio, and the HTRF ratio was calculated by the following formula.
(§5) IC50 values were statistically calculated using Prism 6 (GraphPad).

[3] = target: TNF-TNFR1 (Homo sapiens, UniProt P01375); test: TNF-TNFR1 binding inhibition, FRET assay; settings: for IC50: FRET (HTRF ratio), 0.25 nM TNF, 0.25 nM His-labeled TNFR1
Procedure: as §1, §2, §3, §4, §5

[4] = system: TNF-cell signal transduction pathway; test: TNF-cell signal transduction, Western blot in L929 cells; assay type: cell-based, mouse; settings: hTNF 10 ng/ml + compound 0.01, 0.1, 1, 10 μM, vs hTNF alone
Procedure: Second, the inhibition of TNF signal transduction activity of Example 48 was confirmed. In order to examine the TNF-cell signal transduction inhibitory activity by the compound of the present invention, Western blot analysis was performed on proteins of the signal transduction pathway, namely phospho-p65, phospho-IKKα/β, phospho-SAPK/JNK, and phospho-AKT.
In particular, hTNF alone (10 ng/ml) or a mixture of hTNF and the compound of Example 48 (0.01, 0.1, 1, 10 μM) was incubated for 30 minutes, and then the incubated mixture was applied to mouse fibroblast L929 cells for 10 minutes. After the treatment, Western blot analysis was performed for phospho-p65, phospho-IKKα/β, phospho-SAPK/JNK, and phospho-AKT.

[5] = system: RIP1; test: RIP1 ubiquitination, immunoprecipitation with TNFR1 in human peripheral blood T cells; assay type: cell-based; settings: compound 0.1 μM 24 hours, then TNF 10 minutes, vs hTNF alone
Procedure: Two experiments were conducted to examine the TNF-cell signal transduction inhibitory activity by the compound of the present invention. First, immunoprecipitation was performed to evaluate the ubiquitination of an upstream protein of the TNF signaling pathway, that is, RIP1.
In particular, human peripheral blood T cells were treated with the compound of Example 48 (0, 0.1 μM) for 24 hours followed by with TNF for 10 minutes, and then immunoprecipitation was performed with TNFR1 protein.

[6] = system: HEK-Blue TNF cells; test: Inhibition of TNF response in HEK-Blue TNF cells (SEAP reporter gene assay); assay type: cell-based; settings: Homo sapiens, TNF 0.2 ng/mL, absorbance 620 nm
Procedure: In this experiment, the TNF-inhibitory activity of the compound of the present invention was evaluated in HEK-Blue TNF cells. To this end, the transformed HEK-Blue TNF cells that respond specifically to the binding of TNF to TNFRs on the cell surface were treated with the compound of Example 48, followed by a reporter gene assay.
HEK-Blue TNF cells are human embryonic kidney cells that were transformed to express SEAP (secreted embryonic alkaline phosphatase) reporter gene having the binding site for activated NF-κB when TNF binds to TNFR on the cell surface and NF-κB is activated in the cell. […]
An experimental method was used in which SEAP, a reporter gene having the binding site for activated NF-κB in the intracellular signal transduction process, is expressed when human embryonic kidney cells, HEK-Blue TNF cells, are treated with recombinant TNF. In particular, SEAP is expressed when TNF (0.2 ng/mL) is added to HEK-Blue TNF cells, and the degree of color development is measured by treating the SEAP-specific QUANTI-Blue™ solution followed by reading absorbance at 620 nm to obtain IC50 value. The inhibition rate (%) of TNF was calculated by the following formula. […]
as §5

[7] = system: mouse fibroblast L929 cells; test: TNF-induced apoptosis inhibitory activity in L929 cells (MTS assay); assay type: cell-based; settings: TNF 20 ng/mL + actinomycin D, compound 0 to 40 μM, 24 hours, read-out: IC50, inhibition of TNF-induced apoptosis
Procedure: In this experiment, the TNF-induced apoptosis inhibitory activity by the compound of the present invention was investigated. To this end, mouse fibroblasts were treated with the chromenone and quinolone derivative compounds prepared in the above Examples, and then cell viability was measured by a conventionally known MTS assay.
Mouse fibroblast L929 cells were purchased from the American Type Culture Collection (ATCC Manassas, Va.), and then cultured in RPMI medium containing 10% Fetal Bovine Serum (FBS) and 1% antibiotics at the incubator in which 5% CO2 and humidity at 37° C. were maintained.
Mouse fibroblast L929 cells were treated with recombinant TNF and actinomycin D, a sensitizer, to induce apoptosis, with which an assay capable of confirming apoptosis inhibitory activity was established. In particular, apoptosis conditions were induced by adding actinomycin D as a sensitizer and TNF (20 ng/mL) to […], and then L929 cells were pretreated with the compounds of Examples 52, 54, and 55 at a concentration of 0 to 40 μM for 24 hours. After 24 hours, they were treated with MTS for 3 hours, and then the absorbance was measured at 490 nm to calculate IC50 values. % Inhibition of TNF was calculated by the following formula.
% Inhibition of TNF=(OD value of the group treated with the compound−OD value of the group treated with TNF and actinomycin D)/(OD value of the group treated with actinomycin D−OD value of the group treated with TNF and actinomycin D)×100
IC50 values were statistically calculated using Prism 6 (GraphPad) (IC50: 50% inhibitory concentration).

[8] = single concentration (10 PM), FIG. 4

Chain of TNF-TNFR2 (P01375 77-233 limits assumed): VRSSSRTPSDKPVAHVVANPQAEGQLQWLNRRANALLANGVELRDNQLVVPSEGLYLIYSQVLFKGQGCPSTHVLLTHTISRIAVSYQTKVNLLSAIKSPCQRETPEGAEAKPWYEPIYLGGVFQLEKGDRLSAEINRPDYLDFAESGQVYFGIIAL
Chain of TNF-TNFR1 (P01375 77-233 limits assumed): as above

O=C(O)c1c(-c2cc(F)ccc2F)[nH]c2cc(Cl)ccc2c1=O [Example 2, 2-(2,5-difluorophenyl)-3-carboxy-7-chloro-4-(1H)-quinolone]
Survival (%) [1]: 60%
survival rate of mice compared to the control group [1]: increased

O=c1c(O)c(-c2cc(F)ccc2F)oc2cc(Cl)ccc12 [Example 32, 7-chloro-2-(2,5-difluorophenyl)-3-hydroxy-4H-chromen-4-one]
Survival (%) [1]: 90 *** %
survival rate of mice compared to the control group [1]: increased

COc1ccc2c(=O)c(O)c(-c3cc(F)cc(F)c3)oc2c1 [Example 39, 2-(3,5-difluorophenyl)-3-hydroxy-7-methoxy-4H-chromen-4-one]
Survival (%) [1]: 40%
survival rate of mice compared to the control group [1]: increased

COc1c(-c2cc(F)ccc2F)oc2cc(Cl)ccc2c1=O [Example 40, 7-chloro-2-(2,5-difluorophenyl)-3-methoxy-4H-chromen-4-one]
Survival (%) [1]: 50 * %
survival rate of mice compared to the control group [1]: increased

COc1c(-c2cc(F)cc(F)c2)oc2cc(F)ccc2c1=O [Example 44, 2-(3,5-difluorophenyl)-7-fluoro-3-methoxy-4H-chromen-4-one]
Survival (%) [1]: 60 ** %
survival rate of mice compared to the control group [1]: increased

COc1ccc2c(=O)c(OC)c(-c3ccc(F)cc3F)oc2c1 [Example 47, 2-(2,4-difluorophenyl)-3,7-dimethoxy-4H-chromen-4-one]
Survival (%) [1]: 40 * %
survival rate of mice compared to the control group [1]: increased

O=C(O)c1c(-c2ccc(OCCOc3ccc(-c4oc5cc(Cl)ccc5c(=O)c4C(=O)O)c(F)c3)cc2F)oc2cc(Cl)ccc2c1=O [Example 48, 2,2′-((ethane-1,2-diylbis(oxy))bis(2-fluoro-4,1-phenylene))bis(7-chloro-4-oxo-4H-chromene-3-carboxylic acid)]
IC50 [2]: 3.92 µM
binding inhibitory activity, TNF and TNFR2 [2, 8]: inhibit the binding
binding inhibitory effect compared with SPD304 and Quercetin, TNF-TNFR2 [2, 8]: higher binding inhibitory effect than SPD304
IC50 [3]: 3.56 µM
binding inhibitory activity, TNF and TNFR1 [3, 8]: inhibit the binding
binding inhibitory effect compared with SPD304 and Quercetin, TNF-TNFR1 [3, 8]: higher binding inhibitory effect than SPD304
level of phospho-AKT [4]: reduced
level of phospho-IKKα/β [4]: reduced
level of phospho-SAPK/JNK [4]: reduced
level of phospho-p65 [4]: reduced
degree of RIP1 ubiquitination activated by TNF [5]: reduced
Survival (%) [1]: 50 * %
survival rate of mice compared to the control group [1]: increased
IC50 [6]: 9.67 µM

O=C(O)c1c(-c2ccc(OCCOCCOc3ccc(-c4oc5cc(Cl)ccc5c(=O)c4C(=O)O)c(F)c3)cc2F)oc2cc(Cl)ccc2c1=O [Example 51, 2,2′-(((oxybis(ethane-2,1-diyl))bis(oxy))bis(2-fluoro-4,1-phenylene))bis(7-chloro-4-oxo-4H-chromene-3-carboxylic acid)]
IC50 [2]: 22.3 µM
binding inhibitory activity, TNF and TNFR2 [2, 8]: inhibit the binding
IC50 [3]: 14.5 µM
binding inhibitory activity, TNF and TNFR1 [3, 8]: inhibit the binding

O=C(NCCNC(=O)c1c(-c2cc(F)ccc2F)oc2cc(Cl)ccc2c1=O)c1c(-c2cc(F)ccc2F)oc2cc(Cl)ccc2c1=O [Example 52, N,N′-(ethane-1,2-diyl)bis(7-chloro-2-(2,5-difluorophenyl)-4-oxo-4H-chromene-3-carboxamide)]
IC50 [7]: 1.48 µM

O=C(NCCCCNC(=O)c1c(-c2cc(F)ccc2F)oc2cc(Cl)ccc2c1=O)c1c(-c2cc(F)ccc2F)oc2cc(Cl)ccc2c1=O [Example 54, N,N′-(butane-1,4-diyl)bis(7-chloro-2-(2,5-difluorophenyl)-4-oxo-4H-chromene-3-carboxamide)]
IC50 [7]: 7.19 µM

O=C(c1c(-c2cc(F)ccc2F)oc2cc(Cl)ccc2c1=O)N1CCN(C(=O)c2c(-c3cc(F)ccc3F)oc3cc(Cl)ccc3c2=O)CC1 [Example 55, 3,3′-(piperazine-1,4-dicarbonyl)bis(7-chloro-2-(2,5-difluorophenyl)-4H-chromen-4-one)]
IC50 [7]: 7.63 µM
